According to patent publication US7960556B2, “Thiadiazole derivatives for the treatment of neuro-degenerative diseases” (NV reMYND, priority 2006, dated 2011):

System: α-synuclein cytotoxicity in M17-SYNwt cells
Experiment: α-synuclein cytotoxicity assay: LDH leakage from paraquat-treated M17-SYNwt neuroblastoma cells;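 further: paraquat at 32 mM co-added with compound, 40 h exposure, LDH activity released into the culture medium measured, references are DMSO-only cells and paraquat plus DMSO cells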
Conditions: Homo sapiens, Neuroblastoma cell; for Emax: read-out: % Inhib.
Source text: An α-synuclein expression plasmid was constructed by sub-cloning the NcoI/XhoI fragment from 212T-SYN(WT) (Griffioen et al., Biochem Biophys Acta (2006) 1762(3):312-318) containing the cDNA of human wild type α-synuclein correspondingly into a standard mammalian expression vector pcDNA3.1 (Invitrogen) resulting into the plasmid pcDNA3.1-SYNwt. Plasmids pcDNA3.1 and pcDNA3.1-SYNwt were transfected to human neuroblastoma cells (ATCC No. CRL-2267) and independent clonal lines with the plasmids stably integrated into the genome were selected. […] Over-expression of α-synuclein in M17-SYNwt cell lines was confirmed by Western analysis.
Due to the high levels of α-synuclein M17-SYNwt cells are exquisitely sensitivity to paraquat, a well-known risk factor of synuclein-dependent neuronal degeneration. In degenerated or dead cells lactate dehydrogenase (LDH) is leaked out of the cells into the extracellular environment due to a loss of plasma-membrane integrity. This principle was used to determine cytotoxicity by quantifying the level of leaked LDH into the growth medium.
The detailed method for determining α-synuclein cytotoxicity was as follows: From appropriate precultures of M17 and M17-SYN cells were seeded at 50,000 cells/cm^2 in Optimem Reduced Serum without phenol red (available from InVitrogen, Cat. 31985-047) supplemented with 5% fetal calf serum, 1 mM sodium pyruvate, 1× non-essential amino acids, 500 μg/ml G418 0,5× antibiotic/antimycotic. After 3 hours of incubation at 37° C./5% CO2 paraquat was added to the cells (final concentration of 32 mM), together with the test compound and the cells were further incubated for 40 hours. Subsequently, LDH activity was determined using Promega Cytotox 96 Non-Radioactive cytotoxicity assay, (Cat. G1780) according the instructions of the supplier.
In these experiments, the control group consisted of M17-SYNwt cells treated with DMSO, the untreated paraquat group consisted of M17-SYNwt cells treated with paraquat and DMSO, and the treated paraquat group consisted of M17-SYNwt cells treated with paraquat and the test compound dissolved in DMSO.

**Q.** What does the source list for `O=C(Cc1ccccc1)N1CCN(c2nc(Cc3ccc(F)cc3)ns2)CC1` [compound 1, 4-phenylacetyl-1-[3-(4-fluorobenzyl)-1,2,4-thiadiazol-5-yl]piperazine]?
**A.** EC50: 150 nM; Emax: 75%

**Q.** With `O=C(Cc1ccc(F)cc1)N1CCN(c2nc(Cc3ccc(F)cc3)ns2)CC1` [compound 2, 4-(4-fluorophenylacetyl),-1-[3-(4-fluorobenzyl)-1,2,4-thiadiazol-5-yl]piperazine] as the compound, how does the EC50 read?
**A.** Its EC50 is 250 nM.

**Q.** What about the Emax of the same compound?
**A.** Its Emax is 54%.

**Q.** How did the EC50 turn out when `Cc1ccc(Cc2nsc(N3CCN(C(=O)Cc4ccc(F)cc4)C(C)C3)n2)cc1` (stereo not shown) [compound 3, 1-(4-fluorophenylacetyl)-4-[3-(4-methylbenzyl)-1,2,4-thiadiazol-5-yl]-2-methylpiperazine] was run?
**A.** The EC50 was 2200 nM.

**Q.** And the Emax?
**A.** Its Emax is 76%.

**Q.** How did the EC50 turn out when `COc1ccc(CC(=O)N2CCN(c3nc(Cc4ccc(F)cc4)ns3)CC2C)cc1` (stereo not shown) [compound 4, 1-(4-methoxyphenylacetyl)-4-[3-(4-fluorobenzyl)-1,2,4-thiadiazol-5-yl]-2-methylpiperazine] was run?
**A.** Its EC50 is 820 nM.

**Q.** What about the Emax of the same compound?
**A.** Its Emax is 56%.

**Q.** `CC1CN(c2nc(Cc3ccc(F)cc3)ns2)CCN1C(=O)Cc1ccccc1` (stereo not shown) [compound 5, 1-phenylacetyl-4-[3-(4-fluorobenzyl)-1,2,4-thiadiazol-5-yl]-2-methylpiperazine] was tested. Which Emax did it give?
**A.** Its Emax is 83%.

**Q.** With `CC1CN(c2nc(Cc3ccc(F)cc3)ns2)CCN1C(=O)Cc1ccc(F)cc1` (stereo not shown) [compound 6] as the compound, how does the Emax read?
**A.** Its Emax is 75%.

**Q.** `CC1CN(c2nc(Cc3ccc(F)cc3)ns2)CCN1C(=O)C(Cl)c1ccccc1` (stereo not shown) [compound 7, 1-[chloro(phenyl)acetyl]-4-[3-(4-fluorobenzyl)-1,2,4-thiadiazol-5-yl]-2-methylpiperazine] was tested. Which Emax did it give?
**A.** The Emax was 69%.

**Q.** Which results are given for `CCC(C(=O)N1CCN(c2nc(Cc3ccc(F)cc3)ns2)CC1C)c1ccccc1` (stereo not shown) [compound 8, 1-(2-phenylbutanoyl)-4-[3-(4-fluorobenzyl)-1,2,4-thiadiazol-5-yl]-2-methylpiperazine]?
**A.** EC50: 1490 nM; Emax: 71%

**Q.** Which results are given for `O=C(Nc1cccc(F)c1)N1CCN(c2nc(Cc3ccc(F)cc3)ns2)CC1` [compound 9, N-(3-fluorophenyl)-4-[3-(4-fluorobenzyl)-1,2,4-thiadiazol-5-yl]piperazine-1-carboxamide]?
**A.** EC50: 520 nM; Emax: 53%

**Q.** How did the EC50 turn out when `Cc1ccccc1NC(=O)N1CCN(c2nc(Cc3ccc(F)cc3)ns2)CC1C` (stereo not shown) [compound 10, N-(2-methylphenyl)-4-[3-(4-fluorobenzyl)-1,2,4-thiadiazol-5-yl]-2-methylpiperazine-1-carboxamide] was run?
**A.** The EC50 was 600 nM.

**Q.** And the Emax?
**A.** The Emax was 72%.

**Q.** What does the source list for `CCc1ccc(NC(=O)N2CCN(c3nc(Cc4ccc(F)cc4)ns3)CC2C)cc1` (stereo not shown) [compound 11, N-(4-ethylphenyl)-4-[3-(4-fluorobenzyl)-1,2,4-thiadiazol-5-yl]-2-methylpiperazine-1-carboxamide]?
**A.** EC50: 690 nM; Emax: 73%

**Q.** What does the source list for `CCc1ccccc1NC(=O)N1CCN(c2nc(Cc3ccc(F)cc3)ns2)CC1C` (stereo not shown) [compound 12, N-(2-ethylphenyl)-4-[3-(4-fluorobenzyl)-1,2,4-thiadiazol-5-yl]-2-methylpiperazine-1-carboxamide]?
**A.** EC50: 890 nM; Emax: 92%

**Q.** Which EC50 does the source give for `O=C(Nc1ccccc1)N1CCN(c2nc(Cc3ccc(F)cc3)ns2)CC1` [compound 13, N-phenyl-4-[3-(4-fluorobenzyl)-1,2,4-thiadiazol-5-yl]piperazine-1-carboxamide] here?
**A.** The EC50 was 1230 nM.

**Q.** And the Emax?
**A.** Its Emax is 71%.

**Q.** With `CCOc1ccc(NC(=O)N2CCN(c3nc(Cc4ccc(F)cc4)ns3)CC2C)cc1` (stereo not shown) [compound 14, N-(4-ethoxyphenyl)-4-[3-(4-fluorobenzyl)-1,2,4-thiadiazol-5-yl]-2-methylpiperazine-1-carboxamide] as the compound, how does the EC50 read?
**A.** Its EC50 is 1730 nM.

**Q.** And the Emax?
**A.** Its Emax is 70%.

**Q.** `Cc1ccccc1NC(=O)N1CCN(c2nc(Cc3ccc(F)cc3)ns2)CC1` [compound 15, N-(2-methylphenyl)-4-[3-(4-fluorobenzyl)-1,2,4-thiadiazol-5-yl]piperazine-1-carboxamide] was tested. Which EC50 did it give?
**A.** Its EC50 is 5010 nM.

**Q.** What about the Emax of the same compound?
**A.** The Emax was 65%.

**Q.** For `O=C(Nc1ccccc1F)N1CCN(c2nc(Cc3ccc(F)cc3)ns2)CC1` [compound 16, N-(2-fluorophenyl)-4-[3-(4-fluorobenzyl)-1,2,4-thiadiazol-5-yl]piperazine-1-carboxamide], which EC50 is on record?
**A.** The EC50 was 5680 nM.

**Q.** And the Emax?
**A.** The Emax was 72%.

**Q.** How did the Emax turn out when `O=C(Nc1ccccc1C(F)(F)F)N1CCN(c2nc(Cc3ccc(F)cc3)ns2)CC1` [compound 17, N-(2-trifluoromethylphenyl)-4-[3-(4-fluorobenzyl)-1,2,4-thiadiazol-5-yl]piperazine-1-carboxamide] was run?
**A.** The Emax was 46%.

**Q.** `CC1CN(c2nc(Cc3ccc(F)cc3)ns2)CCN1C(=O)Nc1ccccc1C(F)(F)F` (stereo not shown) [compound 18, N-(2-trifluoromethylphenyl)-4-[3-(4-fluorobenzyl)-1,2,4-thiadiazol-5-yl]-2-methylpiperazine-1-carboxamide] was tested. Which Emax did it give?
**A.** The Emax was 41%.

**Q.** For `Cc1cccc(C)c1NC(=O)N1CCN(c2nc(Cc3ccc(F)cc3)ns2)CC1C` (stereo not shown) [compound 19, N-(2,6-dimethylphenyl)-4-[3-(4-fluorobenzyl)-1,2,4-thiadiazol-5-yl]-2-methylpiperazine-1-carboxamide], which EC50 is on record?
**A.** Its EC50 is 200 nM.

**Q.** And the Emax?
**A.** Its Emax is 95%.

**Q.** Which EC50 does the source give for `Cc1ccc(NC(=O)N2CCN(c3nc(Cc4ccc(F)cc4)ns3)CC2C)c(C)c1` (stereo not shown) [compound 20, N-(2,4-dimethylphenyl)-4-[3-(4-fluorobenzyl)-1,2,4-thiadiazol-5-yl]-2-methylpiperazine-1-carboxamide] here?
**A.** The EC50 was 760 nM.

**Q.** What about the Emax of the same compound?
**A.** The Emax was 106%.

**Q.** What does the source list for `CC1CN(c2nc(Cc3ccc(F)cc3)ns2)CCN1C(=O)Nc1ccc(F)cc1F` (stereo not shown) [compound 23, N-(2,4-difluorophenyl)-4-[3-(4-fluorobenzyl)-1,2,4-thiadiazol-5-yl]-2-methylpiperazine-1-carboxamide]?
**A.** EC50: 940 nM; Emax: 66%

**Q.** With `Cc1cccc(C)c1NC(=O)N1CCN(c2nc(Cc3ccc(F)cc3)ns2)CC1` [compound 24, N-(2,6-dimethylphenyl)-4-[3-(4-fluorobenzyl)-1,2,4-thiadiazol-5-yl]piperazine-1-carboxamide] as the compound, how does the EC50 read?
**A.** Its EC50 is 1200 nM.

**Q.** And the Emax?
**A.** The Emax was 124%.

**Q.** Which results are given for `CC1CN(c2nc(Cc3ccc(F)cc3)ns2)CCN1C(=O)Nc1cccc2ccccc12` (stereo not shown) [compound 25, N-1-naphtyl-4-[3-(4-fluorobenzyl)-1,2,4-thiadiazol-5-yl]-2-methylpiperazine-1-carboxamide]?
**A.** EC50: 1690 nM; Emax: 97%

**Q.** With `CC1CN(c2nc(Cc3ccc(F)cc3)ns2)CCN1C(=O)Nc1ccc(F)c(F)c1` (stereo not shown) [compound 26, N-(3,4-difluorophenyl)-4-[3-(4-fluorobenzyl)-1,2,4-thiadiazol-5-yl]-2-methylpiperazine-1-carboxamide] as the compound, how does the Emax read?
**A.** Its Emax is 70%.

**Q.** With `COc1ccc(NC(=O)N2CCN(c3nc(Cc4ccc(F)cc4)ns3)CC2)c(OC)c1` [compound 27, N-(2,4-dimethoxyphenyl)-4-[3-(4-fluorobenzyl)-1,2,4-thiadiazol-5-yl]piperazine-1-carboxamide] as the compound, how does the Emax read?
**A.** The Emax was 67%.

**Q.** `O=C(Nc1ccc(F)c(F)c1)N1CCN(c2nc(Cc3ccc(F)cc3)ns2)CC1` [compound 28, N-(3,4-difluorophenyl)-4-[3-(4-fluorobenzyl)-1,2,4-thiadiazol-5-yl]piperazine-1-carboxamide] was tested. Which Emax did it give?
**A.** Its Emax is 64%.

**Q.** Which Emax does the source give for `COc1cc(NC(=O)N2CCN(c3nc(Cc4ccc(F)cc4)ns3)CC2C)cc(OC)c1` (stereo not shown) [compound 29, N-(3,5-dimethoxyphenyl)-4-[3-(4-fluorobenzyl)-1,2,4-thiadiazol-5-yl]-2-methylpiperazine-1-carboxamide] here?
**A.** Its Emax is 51%.

**Q.** `CC(C)(C)c1ccc(S(=O)(=O)N2CCN(c3nc(Cc4ccc(F)cc4)ns3)CC2)cc1` [compound 30, 1-[4-tert-butylphenylsulfonyl]-4-[3-(4-fluorobenzyl)-1,2,4-thiadiazol-5-yl]piperazine] was tested. Which Emax did it give?
**A.** The Emax was 51%.

**Q.** With `COc1ccc(S(=O)(=O)N2CCN(c3nc(Cc4ccc(Cl)cc4)ns3)CC2)cc1` [compound 31, 1-[4-methoxyphenylsulfonyl]-4-[3-(4-chlorobenzyl)-1,2,4-thiadiazol-5-yl]piperazine] as the compound, how does the EC50 read?
**A.** Its EC50 is 0.169 nM.

**Q.** And the Emax?
**A.** Its Emax is 59%.

**Q.** For `O=S(=O)(c1ccc(F)cc1)N1CCN(c2nc(Cc3ccc(Cl)cc3)ns2)CC1` [compound 33, 1-[4-fluorophenylsulfonyl]-4-[3-(4-chlorobenzyl)-1,2,4-thiadiazol-5-yl]piperazine], which EC50 is on record?
**A.** The EC50 was 2.82 nM.

**Q.** What about the Emax of the same compound?
**A.** Its Emax is 53%.

**Q.** `Cc1ccc(Cc2nsc(N3CCN(S(=O)(=O)c4ccc(Cl)cc4)C(C)C3)n2)cc1` (stereo not shown) [compound 34, 1-[4-chlorophenylsulfonyl]-4-[3-(4-methylbenzyl)-1,2,4-thiadiazol-5-yl]-2-methylpiperazine] was tested. Which EC50 did it give?
**A.** Its EC50 is 65.7 nM.

**Q.** And the Emax?
**A.** Its Emax is 66%.

**Q.** Which results are given for `Cc1ccc(Cc2nsc(N3CCN(S(=O)(=O)c4cccc5ccccc45)CC3)n2)cc1` [compound 35, 1-[1-naphtylsulfonyl]-4-[3-(4-methylbenzyl)-1,2,4-thiadiazol-5-yl]piperazine]?
**A.** EC50: 47.2 nM; Emax: 47%

**Q.** `Cc1ccc(Cc2nsc(N3CCN(S(=O)(=O)c4cc(Cl)ccc4Cl)C(C)C3)n2)cc1` (stereo not shown) [compound 36, 1-[2,5-dichlorophenylsulfonyl]-4-[3-(4-methylbenzyl)-1,2,4-thiadiazol-5-yl]-2-methylpiperazine] was tested. Which EC50 did it give?
**A.** The EC50 was 100 nM.

**Q.** And the Emax?
**A.** The Emax was 52%.

**Q.** For `Cc1ccc(Cc2nsc(N3CCN(S(=O)(=O)c4c(C)cc(C)cc4C)CC3)n2)cc1` [compound 37, 1-[2,4,6-trimethylphenylsulfonyl]-4-[3-(4-methylbenzyl)-1,2,4-thiadiazol-5-yl]piperazine], which EC50 is on record?
**A.** The EC50 was 73.1 nM.

**Q.** And the Emax?
**A.** The Emax was 48%.

**Q.** Which EC50 does the source give for `O=S(=O)(c1cc(Cl)ccc1Cl)N1CCN(c2nc(Cc3ccc(Cl)cc3)ns2)CC1` [compound 39, 1-[2,5-dichlorophenylsulfonyl]-4-[3-(4-chlorobenzyl)-1,2,4-thiadiazol-5-yl]piperazine] here?
**A.** The EC50 was 160 nM.

**Q.** And the Emax?
**A.** Its Emax is 25%.

**Q.** `Cc1ccc(Cc2nsc(N3CCN(S(=O)(=O)c4ccc(C(C)(C)C)cc4)C(C)C3)n2)cc1` (stereo not shown) [compound 42, 1-[4-tert-butylphenylsulfonyl]-4-[3-(4-methylbenzyl)-1,2,4-thiadiazol-5-yl]-2-methylpiperazine] was tested. Which EC50 did it give?
**A.** The EC50 was 870 nM.

**Q.** And the Emax?
**A.** Its Emax is 33%.

**Q.** With `CC1CN(c2nc(Cc3ccc(Cl)cc3)ns2)CCN1S(=O)(=O)c1cccc2ccccc12` (stereo not shown) [compound 43, 1-[1-naphtylsulfonyl]-4-[3-(4-chlorobenzyl)-1,2,4-thiadiazol-5-yl]-2-methylpiperazine] as the compound, how does the EC50 read?
**A.** The EC50 was 890 nM.

**Q.** What about the Emax of the same compound?
**A.** Its Emax is 35%.
